Read-outs that look alike come from different tables or passages of the source.

The target of data set [1] is T1, NPSR (Homo sapiens, UniProt Q6W5P4).
T1 sequence (Q6W5P4 1-371): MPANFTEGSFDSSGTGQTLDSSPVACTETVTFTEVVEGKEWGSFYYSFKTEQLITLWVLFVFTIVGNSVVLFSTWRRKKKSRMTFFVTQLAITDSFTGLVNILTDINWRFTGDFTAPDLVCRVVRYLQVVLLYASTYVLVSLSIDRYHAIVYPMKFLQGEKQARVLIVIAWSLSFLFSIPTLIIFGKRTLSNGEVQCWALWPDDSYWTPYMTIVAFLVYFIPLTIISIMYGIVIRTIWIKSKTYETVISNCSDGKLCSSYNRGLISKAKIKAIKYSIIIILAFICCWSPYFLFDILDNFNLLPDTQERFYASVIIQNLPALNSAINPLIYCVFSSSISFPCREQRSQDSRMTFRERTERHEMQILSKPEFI
Kind of data set: cAMP assay. The class given is cell-based. The settings on record: relative to 1b.

Data set [2] addresses T1, NPSR. The data set is described as follows: Calcium mobilization assay in CHO-NPSR cells. It counts as cell-based. (In general: Calcium flux is commonly read through the fluorescence of an indicator in the cells.)
Data set [3] concerns the target T1, NPSR. The data set is described as follows: [125I] Y10-hNPS binding. Particulars: relative to 1b.
The nature of data set [4]: Mouse pharmacokinetics, 10 mpk IP. It counts as in vivo.
Data set [5] relates to Wistar rats. The data set is described as follows: Rat palatable food intake model. The class given is in vivo.
Data set [6] has as its target Human Recombinant µ-Opioid Receptor OPRM1 (Homo sapiens, UniProt P35372). The class given is binding.
For another data set, the system named is 55 targets. Kind of data set: Profiling at 10 µM against 55 targets.
The nature of another data set: Solubility in PBS. The class given is physicochemical. Particulars: aqueous buffer.
The next data set has as its system rats. The settings on record: cited from earlier work.
The next data set concerns ERK phosphorylation. The settings on record: rats, 1 mpk; cited from earlier work.
Data set [7] in a line: Stability after incubation in mouse liver microsomes. The settings on record: 0 min. Background: Liver microsomes are a subcellular fraction often used to study metabolism.
Data set [8] can be described thus: Stability in aqueous buffers. It counts as physicochemical. Particulars: HBBS or PBS, 48 hours.
In data set [9] the target is T1, NPSR. The data set is described as follows: ERK assay. It counts as cell-based.
The conditions of data set [10]: 0 h.
Data set [11] relates to NPSR. The settings on record: 30 mpk IP, discrete regions of the rat brain; cited from earlier work.
In data set [12] the test system is Wistar rats. Particulars: rat food intake model; cited from earlier work.
In data set [13] the test system is NPS-induced hyperlocomotion. The settings on record: 50 mpk IP, 90 minute mouse model; cited from earlier work.
For data set [14] the following is noted: 15 min; cited from earlier work.

Sequence of Human Recombinant µ-Opioid Receptor OPRM1 (P35372 whole entry): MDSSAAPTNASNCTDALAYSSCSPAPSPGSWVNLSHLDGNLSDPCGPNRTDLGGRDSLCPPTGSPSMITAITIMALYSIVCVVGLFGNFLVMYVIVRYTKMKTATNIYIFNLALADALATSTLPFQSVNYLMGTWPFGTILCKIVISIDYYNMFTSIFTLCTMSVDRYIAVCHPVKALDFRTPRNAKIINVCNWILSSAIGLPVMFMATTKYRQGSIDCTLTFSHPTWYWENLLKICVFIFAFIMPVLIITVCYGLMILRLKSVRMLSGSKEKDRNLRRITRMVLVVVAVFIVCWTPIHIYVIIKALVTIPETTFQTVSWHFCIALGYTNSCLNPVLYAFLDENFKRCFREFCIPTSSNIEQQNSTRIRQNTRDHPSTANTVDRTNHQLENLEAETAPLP

In general, kinetic solubility refers to solubility judged after dilution from a stock solution rather than from solid. The term thermodynamic solubility denotes the concentration in solution at equilibrium with solid. With `Cc1c(P(=S)(c2ccccc2)c2ccccc2)n2ccccc2[n+]1C/C=C/c1ccccc1.[Br-]` [20e, 1-Cinnamyl-3-(diphenylphosphorothioyl)-2-methylimidazo[1,2-a]pyridin-1-ium], the “fold more potent than 1b in the cAMP assay” value on NPSR [1] is 9 fold. For the same compound, the “fold more potent than 1b in the calcium assay” value on NPSR [2] (relative to 1b) stood at 5 fold. Besides, the “fold more potent than 1b in the displacement assay” value on NPSR [3] was found to be 5 fold. For the same compound, the “Brain concentration, mean” value is “BQL” in data set [4] (10 mpk IP, 0 hr); “BQL” in [4] (10 mpk IP, 0 hr, N=3); 30 nmol/g in data set [4] (10 mpk IP, 0.083 hr); 52 nmol/g in data set [4] (10 mpk IP, 0.25 hr); 53 nmol/g in data set [4] (10 mpk IP, 0.5 hr); 44 nmol/g in data set [4] (10 mpk IP, 1 hr). The “Brain concentration, mean” value in data set [4] (10 mpk IP, 2 hr) worked out at 57 nmol/g; in data set [4] (10 mpk IP, 4 hr), 53 nmol/g; in [4] (10 mpk IP, 8 hr), 60 nmol/g; in data set [4] (10 mpk IP, 12 hr), 93 nmol/g; in data set [4] (10 mpk IP, 24 hr), 52 nmol/g. Further, the “Plasma concentration, mean” value in [4] (10 mpk IP, 0 hr) was “BQL”; in data set [4] (10 mpk IP, 0 hr, N=3) it was “BQL”. In data set [4] (plasma, ip, 10 mg/kg, Plasma concentration, mean, 10 mpk IP, 1 hr), the concentration at 1 h turned out to be 556 nM. In data set [4] (plasma, ip, 10 mg/kg, Plasma concentration, mean, 10 mpk IP, 2 hr), this compound yielded a concentration at 2 h of 386 nM. In addition, in [4] (plasma, ip, 10 mg/kg, Plasma concentration, mean, 10 mpk IP, 4 hr), the concentration at 4 h is 245 nM. For the same compound, the concentration at 8 h in data set [4] (plasma, ip, 10 mg/kg, Plasma concentration, mean, 10 mpk IP, 8 hr) came out at 214 nM. The compound further showed a concentration at 12 h in data set [4] (plasma, ip, 10 mg/kg, Plasma concentration, mean, 10 mpk IP, 12 hr) of 126 nM. This compound gave a concentration at 24 h in data set [4] (plasma, ip, 10 mg/kg, Plasma concentration, mean, 10 mpk IP, 24 hr) of 54 nM. Moreover, the adverse reactions result in data set [4] (single 10 mpk IP dose) is on record as “No adverse reactions were observed”. Further, the “reversal of NPS-induced suppression of palatable food intake” value in the data set on Wistar rats [5] (single 10 µg icv, before 10 µg NPS icv, 15, 30 and 60 min) was “reverse the suppression of food intake”. Moreover, the “fold activity relative to naloxone or morphine, DAMGO displacement” value in data set [6] is given as less than 200 fold. The “inhibition of control in seven of 55 targets” value with 55 targets is reported as greater than 90%. In addition, the solubility (kinetic) in “Solubility in PBS” (kinetic from dmso stock) is greater than 150 µM. The solubility (thermodynamic) in the data set “Solubility in PBS” (thermodynamic from solid) is roughly 45 µM. Also, the “efficacy in rat alcohol models” value with rats (IP dose of 1.0 mpk) is reported as “show efficacy”. For the same compound, the “alcohol self administration in rats” value in the data set with rats (dose as low as 1 mpk) is listed as “supression of alcohol self administartion”. Also, in the data set with ERK phosphorylation, the “alcohol induced ERK phosphorylation in the central amygdala” value is recorded as “reduce alcohol induced ERK phosphorylation”. For the same compound, the figures for the “% parent compd remaining after incubation in mouse liver microsomes” value in data set [7] (with NADPH) and in data set [7] (without NADPH) were 100% and 94%, respectively.
For `Cc1c(P(=S)(c2ccccc2)c2ccccc2)[n+]2ccccc2n1C.[I-]` [compound 7, 3-(diphenylphosphorothioyl)-1,2-dimethylimidazo[1,2-a]pyridin-1-ium], the “chemical stability in aqueous buffers” value in data set [8] is “did not decompose to any other species”.
Regarding `C[n+]1cc(P(=S)(c2ccccc2)c2ccccc2)n2ccccc21` [13a, 3-(Diphenylphosphorothioyl)-1-methylimidazo[1,2-a]pyridin-1-ium], the “ERK assay inhibition at the highest concentration tested” value on NPSR [9] (Table 1 footnote b, 50 µM) is less than 50% ^b.
As for `CCC(C)(CCN1CCOCC1)N(Cc1cc2ccccc2n(C)c1=O)C(=O)C1CCCCC1` (centres unmarked) [compound 2], the “% parent compd remaining after incubation in mouse liver microsomes” value in data set [10] came to 100%. Moreover, the “ex vivo occupancy of NPSR” value in the data set on NPSR [11] was “high ex vivo occupancy of NPSR”.
For the compound [D-Cys(tBU)^5]NPS, in the data set on Wistar rats [12], the “reversal of the anorectic effect of NPS” value is reported as “reverse the anorectic effect of NPS”.
One may read the IC50 as the point on the concentration scale where inhibition reaches its midpoint. Regarding `Cc1c(P(=S)(c2ccccc2)c2ccccc2)n2ccccc2[n+]1CCCc1ccccc1` [20d, 3-(Diphenylphosphorothioyl)-2-methyl-1-(3-phenylpropyl)imidazo[1,2-a]pyridin-1-ium], the results for the IC50 at NPSR [2] (IC50 in the calcium assay) and on NPSR [9] (IC50 in the ERK assay) were 1 nM and 2 nM, respectively.
“NPS: neuropeptide S, peptide sequence SFRNGVGTGMKKTSFQRAKS, endogenous agonist of NPSR [reference compound]”: in the data set with Wistar rats [5] (10 µg NPS icv, 15, 30 and 60 min), the palatable food intake entry is listed as “marked reduction in food intake”.
As for `Cc1nc2ccccn2c1P(=S)(c1ccccc1)c1ccccc1` [12d, 3-(Diphenylphosphorothioyl)-2-methylimidazo[1,2-a]pyridine], at NPSR [9] (ERK IC50, Table 1, CHO-NPS cells, 1 nM NPS (EC80), one experiment in duplicate), the IC50 came to 30 nM.
Regarding `O=C(NCc1ccc(F)cc1)N1CCN2C(=O)OC(c3ccccc3)(c3ccccc3)C2C1` (centres unmarked) [1b, 3-oxo-1,1-diphenyl-tetrahydro-oxazolo[3,4-a]pyrazine-7-carboxylic acid 4-fluoro-benzylamide], the “reduction of NPS-induced hyperlocomotion” value in [13] is “about 50%”. Also, the brain level in data set [14] is roughly 6000 nM.

Source of the values: publication PMC4877059 (Journal of medicinal chemistry, 2013).
